Patent US20080114007A1 (priority 2006, published 2008)

molecular target: CSF-1R (Homo sapiens, UniProt P07333); assay: Peptide (non-phosphorylated) assay, fluorescence polarization competition immunoassay; assay type: biochemical; details: 0.7 nM CSF-1R, 308 μM SYEGNSYTFIDPTQ peptide, 1 mM ATP, 80 min; mean of at least three determinations; read-out: c-fms Peptide IC50
Outline: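 Read-out is fluorescence polarization: after EDTA quench, anti-phosphotyrosine antibody plus PTK green tracer compete with the phosphorylated peptide for 30 min. The CSF-1R reaction itself ran 80 min at room temperature after ATP addition. DMSO (4%) wells served as controls, positive controls pre-treated with EDTA.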

Chain of CSF-1R (P07333 20-972): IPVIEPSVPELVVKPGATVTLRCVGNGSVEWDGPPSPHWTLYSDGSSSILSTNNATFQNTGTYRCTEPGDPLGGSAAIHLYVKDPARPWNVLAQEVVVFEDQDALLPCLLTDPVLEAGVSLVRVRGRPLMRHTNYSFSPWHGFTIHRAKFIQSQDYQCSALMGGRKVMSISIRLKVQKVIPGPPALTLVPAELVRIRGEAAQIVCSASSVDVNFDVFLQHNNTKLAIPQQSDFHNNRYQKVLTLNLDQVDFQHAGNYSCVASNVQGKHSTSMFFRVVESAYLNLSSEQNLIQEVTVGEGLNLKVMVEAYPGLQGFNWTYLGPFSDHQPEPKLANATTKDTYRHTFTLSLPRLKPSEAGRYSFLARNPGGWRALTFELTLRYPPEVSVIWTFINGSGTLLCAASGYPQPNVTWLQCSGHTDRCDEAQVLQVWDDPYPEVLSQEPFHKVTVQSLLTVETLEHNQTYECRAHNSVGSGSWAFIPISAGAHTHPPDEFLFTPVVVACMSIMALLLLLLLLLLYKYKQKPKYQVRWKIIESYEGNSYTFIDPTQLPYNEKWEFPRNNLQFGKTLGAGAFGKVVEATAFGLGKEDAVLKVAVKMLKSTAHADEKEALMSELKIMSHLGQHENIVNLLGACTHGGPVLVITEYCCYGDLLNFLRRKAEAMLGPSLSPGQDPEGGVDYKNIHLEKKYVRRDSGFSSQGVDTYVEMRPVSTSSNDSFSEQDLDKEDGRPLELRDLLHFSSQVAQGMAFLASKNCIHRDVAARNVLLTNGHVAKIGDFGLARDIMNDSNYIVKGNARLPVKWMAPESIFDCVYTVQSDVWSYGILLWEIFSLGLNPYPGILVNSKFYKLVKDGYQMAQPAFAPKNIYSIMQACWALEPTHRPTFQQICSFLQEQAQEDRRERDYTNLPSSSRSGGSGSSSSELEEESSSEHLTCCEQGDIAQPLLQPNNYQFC

`CCc1ccc(-n2cc(C(=O)NOC)c(=O)c3cnc(Nc4ccc(OCCOC)c(OCCOC)c4)nc32)cc1` [Cpd 308, 2-[3,4-bis-(2-methoxy-ethoxy)-phenylamino]-8-(4-ethyl-phenyl)-5-oxo-5,8-dihydro-pyrido[2,3-d]pyrimidine-6-carboxylic acid methoxy-amide] and `CCc1ccc(-n2cc(C(=O)NOC)c(=O)c3cnc(Nc4ccc(OCCCOC)c(OCCCOC)c4)nc32)cc1` [Cpd 323, 2-[3,4-bis-(3-methoxy-propoxy)-phenylamino]-8-(4-ethyl-phenyl)-5-oxo-5,8-dihydro-pyrido[2,3-d]pyrimidine-6-carboxylic acid methoxy-amide] are within 1.5-fold of each other in IC50: 0.9 nM for the first, 1 nM for the second.

First: CCc1ccc(-n2cc(C(=O)NOC)c(=O)c3cnc(Nc4ccc(OC5CCN(C)CC5)cc4)nc32)cc1 [Cpd 309, 8-(4-ethyl-phenyl)-2-[4-(1-methyl-piperidin-4-yloxy)-phenylamino]-5-oxo-5,8-dihydro-pyrido[2,3-d]pyrimidine-6-carboxylic acid methoxy-amide]
Second: CCc1ccc(-n2cc(C(=O)NOC)c(=O)c3cnc(Nc4ccc(OC5CCN(CC)CC5)cc4)nc32)cc1 [Cpd 310, 8-(4-ethyl-phenyl)-2-[4-(1-ethyl-piperidin-4-yloxy)-phenylamino]-5-oxo-5,8-dihydro-pyrido[2,3-d]pyrimidine-6-carboxylic acid methoxy-amide]
The IC50 of the first is 1.7-fold lower: 0.3 nM for the first, 0.5 nM for the second.

`CONC(=O)c1cn(-c2ccc3c(c2)CCC3)c2nc(Nc3ccc(OC4CCNCC4)cc3)ncc2c1=O` [Cpd 311, 8-indan-5-yl-5-oxo-2-[4-(piperidin-4-yloxy)-phenylamino]-5,8-dihydro-pyrido[2,3-d]pyrimidine-6-carboxylic acid methoxy-amide] and `CONC(=O)c1cn(-c2ccc3c(c2)CCC3)c2nc(Nc3ccc(OC4CCN(C)CC4)cc3)ncc2c1=O` [Cpd 313, 8-indan-5-yl-2-[4-(1-methyl-piperidin-4-yloxy)-phenylamino]-5-oxo-5,8-dihydro-pyrido[2,3-d]pyrimidine-6-carboxylic acid methoxy-amide] are the same in IC50: 0.3 nM for the first, 0.3 nM for the second.

Going from `CCN1CCC(Oc2ccc(Nc3ncc4c(=O)c(C(=O)NOC)cn(-c5ccc6c(c5)CCC6)c4n3)cc2)CC1` [Cpd 312, 2-[4-(1-ethyl-piperidin-4-yloxy)-phenylamino]-8-indan-5-yl-5-oxo-5,8-dihydro-pyrido[2,3-d]pyrimidine-6-carboxylic acid methoxy-amide] to `CCc1ccc(-n2cc(C(=O)NOC)c(=O)c3cnc(Nc4cccc(OC5CCN(CC)CC5)c4)nc32)cc1` [Cpd 322, 8-(4-ethyl-phenyl)-2-[3-(1-ethyl-piperidin-4-yloxy)-phenylamino]-5-oxo-5,8-dihydro-pyrido[2,3-d]pyrimidine-6-carboxylic acid methoxy-amide], the IC50 rises from 0.2 nM to 0.8 nM (4-fold). The first is the more potent here.

Compared with `COCCOc1ccc(Nc2ncc3c(=O)c(C(=O)NOC)cn(-c4ccc5c(c4)CCC5)c3n2)cc1OCCOC` [Cpd 314, 2-[3,4-bis-(2-methoxy-ethoxy)-phenylamino]-8-indan-5-yl-5-oxo-5,8-dihydro-pyrido[2,3-d]pyrimidine-6-carboxylic acid methoxy-amide], `CONC(=O)c1cn(-c2ccc3c(c2)CCC3)c2nc(Nc3cccc(N(C)C)c3)ncc2c1=O` [Cpd 326, 2-(3-dimethylamino-phenylamino)-8-indan-5-yl-5-oxo-5,8-dihydro-pyrido[2,3-d]pyrimidine-6-carboxylic acid methoxy-amide] is 2.2-fold higher in IC50: 0.5 nM for the first, 1.1 nM for the second. The first is the more potent here.

`CONC(=O)c1cn(-c2ccc3c(c2)CCC3)c2nc(Nc3ccc(C4C[C@@]5(C)O[C@@](C)(C4)[C@H]4OC(C)(C)O[C@H]45)cc3)ncc2c1=O` (stereo partly drawn) [Cpd 315, 8-indan-5-yl-5-oxo-2-[4-(2aR,1R,7S,6aS)-(1,4,4,7-tetramethyl-3,5,11-trioxa-tricyclo[5.3.1.0^2,6]undec-9-yl)-phenylamino]-5,8-dihydro-pyrido[2,3-d]pyrimidine-6-carboxylic acid methoxy-amide] and `CONC(=O)c1cn(-c2ccc3c(c2)CCC3)c2nc(Nc3cccc(N4CCOCC4)c3)ncc2c1=O` [Cpd 325, 8-indan-5-yl-2-(3-morpholin-4-yl-phenylamino)-5-oxo-5,8-dihydro-pyrido[2,3-d]pyrimidine-6-carboxylic acid methoxy-amide] are the same in IC50: 0.5 nM for the first, 0.5 nM for the second.

`CCc1ccc(-n2cc(C(=O)NOC)c(=O)c3cnc(Nc4ccccc4)nc32)cc1` [Cpd 316, 8-(4-ethyl-phenyl)-5-oxo-2-phenylamino-5,8-dihydro-pyrido[2,3-d]pyrimidine-6-carboxylic acid methoxy-amide] and `CCc1ccc(-n2cc(C(=O)NOC)c(=O)c3cnc(Nc4cccc(N(C)C)c4)nc32)cc1` [Cpd 319, 2-(3-dimethylamino-phenylamino)-8-(4-ethyl-phenyl)-5-oxo-5,8-dihydro-pyrido[2,3-d]pyrimidine-6-carboxylic acid methoxy-amide] are within 1.5-fold of each other in IC50: 1.8 nM for the first, 1.7 nM for the second.

Going from `CCc1ccc(-n2cc(C(=O)NOC)c(=O)c3cnc(Nc4ccc(-n5cccc5)cc4)nc32)cc1` [Cpd 317, 8-(4-ethyl-phenyl)-5-oxo-2-(4-pyrrol-1-yl-phenylamino)-5,8-dihydro-pyrido[2,3-d]pyrimidine-6-carboxylic acid methoxy-amide] to `CCc1ccc(-n2cc(C(=O)NOC)c(=O)c3cnc(Nc4cccc(N5CCOCC5)c4)nc32)cc1` [Cpd 320, 8-(4-ethyl-phenyl)-2-(3-morpholin-4-yl-phenylamino)-5-oxo-5,8-dihydro-pyrido[2,3-d]pyrimidine-6-carboxylic acid methoxy-amide], the IC50 falls from 5.5 nM to 0.5 nM (11-fold). The second is the more potent here.

First: CCc1ccc(-n2cc(C(=O)NOC)c(=O)c3cnc(Nc4ccc(OC5CCN(CC(F)(F)F)CC5)cc4)nc32)cc1 [Cpd 318, 8-(4-ethyl-phenyl)-5-oxo-2-{4-[1-(2,2,2-trifluoro-ethyl)-piperidin-4-yloxy]-phenylamino}-5,8-dihydro-pyrido[2,3-d]pyrimidine-6-carboxylic acid methoxy-amide]
Second: CCc1ccc(-n2cc(C(=O)NOC)c(=O)c3cnc(Nc4cccc(N5CCN(C)CC5)c4)nc32)cc1 [Cpd 321, 8-(4-ethyl-phenyl)-2-[3-(4-methyl-piperazin-1-yl)-phenylamino]-5-oxo-5,8-dihydro-pyrido[2,3-d]pyrimidine-6-carboxylic acid methoxy-amide]
The IC50 of the first is 11-fold higher: 5.3 nM for the first, 0.5 nM for the second.

`CONC(=O)c1cn(-c2ccc3c(c2)CCC3)c2nc(Nc3cccc(N4CCN(C)CC4)c3)ncc2c1=O` [Cpd 324, 8-indan-5-yl-2-[3-(4-methyl-piperazin-1-yl)-phenylamino]-5-oxo-5,8-dihydro-pyrido[2,3-d]pyrimidine-6-carboxylic acid methoxy-amide] was tested, and the IC50 was 0.5 nM.

molecular target: c-fms (Homo sapiens, UniProt P07333); assay: Autophosphorylation, fluorescence polarization competition immunoassay; assay type: biochemical; details: 10 nM c-fms, 1 mM ATP, 5 mM MgCl2, 45 min; averages of three independent measurements
Experimental: The assay buffer used was 100 mM 4-(2-hydroxyethyl)piperazine 1-ethanesulfonic acid (HEPES), pH 7.5, 1 mM 1,4-dithio-DL-threitol (DTT), 0.01% (v/v) Tween-20. Compounds were diluted in assay buffer containing 4% dimethylsulfoxide (DMSO) just prior to the assay. […] The kinase reaction was initiated by adding 2 μL of 5 mM ATP (Sigma) in assay buffer. The final concentrations in the assay were 10 nM c-fms, 1 mM ATP, 5 mM MgCl2, 2% DMSO. Control reactions were ran in each plate: in positive and negative control wells, assay buffer (made 4% in DMSO) was substituted for the compound; in addition, positive control wells received 1.2 μL of 50 mM ethylenediaminetetraacetic acid (EDTA).
At the end of the incubation, the reaction was quenched with 1.2 μL of 50 mM EDTA (EDTA was not added to the positive control wells at this point; see above). Following a 5-min incubation, each well received 10 μL of a 1:1:3 mixture of anti-phosphotyrosine antibody, 10×, PTK green tracer, 10× (vortexed), FP dilution buffer, respectively (all from PanVera, cat. # P2837). The plate was covered, incubated for 30 min at room temperature and the fluorescence polarization was read on the Analyst.
The IC50 values shown in Table 1 are averages of three independent measurements.

Chain of c-fms (P07333 20-972): as above

Going from `CNC(=O)c1cn(-c2ccc3c(c2)CCC3)c2nc(Nc3cccc(C(=O)N4CCCCC4)c3)ncc2c1=O` [Cpd 113, 8-indan-5-yl-5-oxo-2-[3-(piperidine-1-carbonyl)-phenylamino]-5,8-dihydro-pyrido[2,3-d]pyrimidine-6-carboxylic acid methylamide] to `NC(=O)c1cn(-c2ccc3c(c2)CCC3)c2nc(Nc3ccc(CN4CCCCC4)cc3)ncc2c1=O` [Cpd 119, 8-indan-5-yl-5-oxo-2-(4-piperidin-1-ylmethyl-phenylamino)-5,8-dihydro-pyrido[2,3-d]pyrimidine-6-carboxylic acid amide], the IC50 falls from > 1000 nM to 2.6 nM. The second is the more potent here.
